Laboratory results taken from patent US8748491B2, “Dietary and pharmaceutical compositions containing tricyclic diterpenes and their derivatives and their uses” (priority 2006, dated 2014).
Marks after values point to notes of the source that are not given here.

What was measured:
[1] = target: T1, human serotonin re-uptake transporter (hSERT) (Homo sapiens, UniProt P31645); assay: Inhibition of tritiated serotonin uptake into transfected HEK-293 cells; format: cell-based; conditions: HEK-293 cells expressing hSERT; 20 nM [3H] serotonin, 40 min, 37° C.; mean ± s.e.m.
T1 construct: host or cells: HEK-293
From the text: HEK-293 cells stably expressing the human serotonin re-uptake transporter (hSERT) were obtained from R. Blakely, Vanderbilt University, USA. The cells were routinely grown in Dulbecco's Modified Eagle's Medium (Bioconcept) containing 10% fetal calf serum, penicillin, streptomycin, L-glutamine and the antibiotic G418 and passaged by trypsinisation. On the day of assay, cells from 80% confluent flasks were harvested by gentle washing with warm phosphate buffered saline (PBS). […] Serotonin uptake into the cells was determined by addition of radio-labelled [^3H] serotonin (GE Healthcare) at a concentration of 20 nM, and incubation for 40 minutes at 37° C. with gentle shaking. At the end of this time unincorporated label was removed by filtration though Unifilter 96 GF/B plates (Perkin Elmer) using a Tomtec Mach III M cell harvester. The incorporated serotonin retained on the plates was quantified by liquid scintillation counting using Microscint-40/Topcount (Perkin Elmer).

mouse [2] = assay: Porsolt's forced swim test (FST); format: in vivo
Description: Mice were individually placed in cylinders (24.5 cm height, 19.5 cm internal diameter) containing 13.5 cm depth of water (22±0.5° C.) for a period of 6 minutes, behavioural parameters of interest being analysed during the final 4 minutes of the test, since the first 2 minutes include vigorous activity. Six cylinders were placed in a Perspex box, thus enabling six mice to be tested simultaneously.
Automatic monitoring of swim tests was enabled through the use of VideoMot2 software (TSE Technical and Scientific Equipment GmbH, Bad Homburg, Germany). All to experiments were observed via a black and white CCD camera. The rest:locomotion and stop:start thresholds, as determined by setting parameters in the software programme, determine the number of pixels which must change for a movement to be registered, enabling the software to determine whether a mouse is swimming or resting. The parameters which are automatically recorded include: rest time and locomotion time (ms), % rest and % locomotion, distance travelled (cm), speed of travel (cm/s) and number of stops.
Data were analysed by comparing treated groups with the untreated control group using Fisher's PLSD (StatView, SAS Institute Inc., Cary, N.C., USA)

[3] = target: T2, Monoamine oxidase B (MAO-B) (Homo sapiens, UniProt P27338); assay: Monoamine oxidase B inhibition (benzylamine substrate, H2O2/vanillic acid/HRP readout); format: biochemical; conditions: benzylamine 0.5 mM; mean ± s.e.m.; read-out: IC50 [μM] for Inhibition of MAO-B
T2 sequence (P27338 1-520): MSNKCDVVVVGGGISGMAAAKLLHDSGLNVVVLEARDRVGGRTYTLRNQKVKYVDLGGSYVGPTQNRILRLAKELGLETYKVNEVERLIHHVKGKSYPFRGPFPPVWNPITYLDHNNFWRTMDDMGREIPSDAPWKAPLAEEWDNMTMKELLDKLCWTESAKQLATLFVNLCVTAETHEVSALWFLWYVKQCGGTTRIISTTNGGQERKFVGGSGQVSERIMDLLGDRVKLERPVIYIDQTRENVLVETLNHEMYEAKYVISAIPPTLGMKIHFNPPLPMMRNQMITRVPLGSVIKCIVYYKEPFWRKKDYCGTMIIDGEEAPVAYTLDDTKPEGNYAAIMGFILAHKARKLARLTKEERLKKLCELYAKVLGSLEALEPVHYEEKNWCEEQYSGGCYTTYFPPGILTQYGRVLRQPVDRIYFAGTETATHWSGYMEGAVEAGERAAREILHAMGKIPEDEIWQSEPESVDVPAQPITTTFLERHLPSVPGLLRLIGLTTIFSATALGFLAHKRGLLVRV
Description: (§1) The organic amines p-tyramine or benzylamine were used as substrates for the Monoamine oxidase A (MAO-A) and B (MAO-B) enzymes respectively. The H2O2 produced by this reaction was quantified by reaction with vanillic acid, catalysed by horse radish peroxidase (HRP).
(§2) The reactions were carried out in polystyrene microtitre plates. The MAO enzymes (final concentration 2 U/ml) were mixed with either p-tyramine (Sigma, final concentration 0.5 mM) or benzylamine (Sigma, final concentration 0.5 mM) as appropriate and the chromogenic solution (containing vanillic acid (Fluka), 4-aminoantipyrine (Fluka) and horse radish peroxidase (Sigma), final concentrations 0.25 mM, 0.125 mM and 1 U/ml respectively) in 0.2 M potassium phosphate buffer, pH 7.6. The reactions were followed in a microtitre plate absorbance reader e.g. Spectramax M5 (Molecular Devices Corporation). Absorbance readings at 495 nm were taken every 15 seconds for 40 minutes and the initial reaction velocities calculated by linear regression using SOFTmaxPro (Molecular Devices Corporation).
(§3) The effect of tricyclic diterpenes and their derivatives according to formula I on the monoamine oxidase enzymes was determined by their inclusion in the assay at a range of concentrations between 0.03 and 100 μM for 10 minutes prior to and during the incubation with substrate. To determine the effect of the compounds on the HRP catalyzed portion of the reaction, the MAO enzyme was replaced by H2O2 (Molecular Probes, final concentration 0.2 mM). The reactions containing MAO-A and MAO-B were both inhibited by tricyclic diterpenes and their derivatives according to formula I in a dose-dependent manner, whilst the control reaction, was unaffected. The measured IC50 values for inhibition of monoamine oxidase activity by carnosic acid, carnosic acid-12-methyl ether and 20-deoxo-carnosol are shown in Table 3.

[4] = target: T3, Monoamine oxidase A (MAO-A) (Homo sapiens, UniProt P21397); assay: Monoamine oxidase A inhibition (p-tyramine substrate, H2O2/vanillic acid/HRP readout); format: biochemical; conditions: p-tyramine 0.5 mM; mean ± s.e.m.; read-out: IC50 [μM] for Inhibition of MAO-A
T3 sequence (P21397 1-527): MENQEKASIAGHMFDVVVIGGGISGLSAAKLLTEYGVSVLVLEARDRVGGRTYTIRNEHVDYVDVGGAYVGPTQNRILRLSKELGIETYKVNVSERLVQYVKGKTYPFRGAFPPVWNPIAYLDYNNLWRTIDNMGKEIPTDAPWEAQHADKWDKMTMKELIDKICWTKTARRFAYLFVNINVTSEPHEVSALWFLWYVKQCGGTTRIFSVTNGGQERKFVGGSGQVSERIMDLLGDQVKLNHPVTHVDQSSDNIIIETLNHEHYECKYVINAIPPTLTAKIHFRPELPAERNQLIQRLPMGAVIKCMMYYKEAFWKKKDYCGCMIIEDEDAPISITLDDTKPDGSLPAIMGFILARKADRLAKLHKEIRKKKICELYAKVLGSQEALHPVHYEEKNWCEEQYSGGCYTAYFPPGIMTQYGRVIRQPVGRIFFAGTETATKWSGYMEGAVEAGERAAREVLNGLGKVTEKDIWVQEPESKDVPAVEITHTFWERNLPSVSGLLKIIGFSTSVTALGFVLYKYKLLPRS
Description: as §1, §2, §3

mouse [5] = assay: Marble burying test; format: in vivo; conditions: for NUMBER OF MARBLES COVERED BY SAWDUST % change from control / NUMBER OF MARBLES COVERED BY SAWDUST mean ± s.e.m.: mouse
Description: The method applied here follows that described by Broekkamp et al., supra. Mice (n=15 per treatment group) were individually placed in transparent plastic cages (33×21×18 cm) with 5 cm of sawdust on the floor and 25 marbles (diameter 1 cm) grouped in the centre of the cage. A second, up-turned, cage served as a lid. The number of marbles covered by sawdust (by at least two-thirds) was counted at the end of the 30-minute test period. Tests were performed by investigators blind to the drug treatment protocol.
Prior to testing, all test cages and marbles were “impregnated” by leaving 10 naive mice in each cage for 15 minutes. […]
Data were analysed by comparing treated groups with vehicle control using unpaired Student's t-tests.

mouse [6] = assay: Light dark box test; format: in vivo; conditions: mouse, 32 mg/kg p.o. −1 h
From the text: The method, which detects anxiolytic activity, follows that described by Crawley, 1981 Pharmacol. Biochem. Behav., 15:695-699. Anxiolytics increase the time spent in the light compartment.
Animals were placed into the light compartment of a 2-compartment box with one half light and open (25×27×27 cm) and the other half dark and closed (20×27×27 cm). The time spent in each compartment as well as the number of times the animal crosses from one side to the other is scored during a 3-minute test. 15 mice were studied per group. The test was performed blind.
Carnosic acid was evaluated at 3 doses (100, 200, 400 mg/kg BW), administered by oral gavage (p.o.) 24, 5 and 1 hour before the test, and compared with a vehicle control group (corn oil). Carnosic acid was dissolved in corn oil (“vehicle”). Clobazam (32 mg/kg p.o.), administered 1 hour before the test, was used as reference substance. Mice in this group received additional administrations of vehicle at 24 and 5 hours before the test in order to maintain experimental blinding.

[7] = Table 6, 100 mg/kg i.p. −30 min
[8] = Table 6, 200 mg/kg i.p. −30 min

T1 sequence (P31645 whole entry): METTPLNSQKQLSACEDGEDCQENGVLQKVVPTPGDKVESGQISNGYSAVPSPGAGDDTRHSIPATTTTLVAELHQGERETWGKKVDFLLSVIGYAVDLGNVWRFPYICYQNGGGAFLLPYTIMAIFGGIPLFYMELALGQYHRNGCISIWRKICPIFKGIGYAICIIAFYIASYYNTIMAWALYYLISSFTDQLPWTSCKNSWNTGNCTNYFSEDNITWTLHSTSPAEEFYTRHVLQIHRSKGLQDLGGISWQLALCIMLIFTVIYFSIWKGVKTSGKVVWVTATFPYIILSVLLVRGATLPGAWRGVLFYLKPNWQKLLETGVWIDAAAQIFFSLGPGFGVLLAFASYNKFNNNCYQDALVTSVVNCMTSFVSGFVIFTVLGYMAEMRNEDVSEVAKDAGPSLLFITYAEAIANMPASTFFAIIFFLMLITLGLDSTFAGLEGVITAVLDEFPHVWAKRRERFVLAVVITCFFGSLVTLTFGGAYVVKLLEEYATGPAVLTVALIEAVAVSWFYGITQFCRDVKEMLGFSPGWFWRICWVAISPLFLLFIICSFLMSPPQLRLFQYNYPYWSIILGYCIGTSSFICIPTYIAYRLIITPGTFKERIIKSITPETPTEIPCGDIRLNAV

Compound: CC(C)c1c(O)ccc2c1CC[C@H]1C(C)(C)CCC[C@]21C [Totarol, totarol]
- IC50 [1]: 7.5 ± 2.6 µM

Compound: CN(C)CCCN1c2ccccc2CCc2ccccc21 [imipramine, reference compound]
- Duration of immobility (% change from control) (mouse [2]; 32 mg/kg i.p., −30 min): −61%
- Duration of immobility (% change from control) (mouse [2]; 32 mg/kg p.o., −24, −5, −1 h): −56%

Compound: CC(C)c1cc2c(c(O)c1O)[C@@]13CCCC(C)(C)[C@@H]1C[C@@H]2OC3 [20-Deoxo-carnosol, 20-deoxo-carnosol]
- IC50 [3]: 27 ± 7.3 µM
- IC50 [1]: 4.2 ± 0.2 µM
- IC50 [4]: 4.3 ± 1.1 µM
- NUMBER OF MARBLES COVERED BY SAWDUST % change from control (mouse [5]; Table 6, 30 mg/kg i.p. −30 min): −24%
- NUMBER OF MARBLES COVERED BY SAWDUST mean ± s.e.m. (mouse [5]; Table 6, 30 mg/kg i.p. −30 min): 16.7 ± 2.2
- NUMBER OF MARBLES COVERED BY SAWDUST % change from control (mouse [5]; [7]): −56%
- NUMBER OF MARBLES COVERED BY SAWDUST mean ± s.e.m. (mouse [5]; [7]): 9.7 ± 2.3
- NUMBER OF MARBLES COVERED BY SAWDUST % change from control (mouse [5]; [8]): −60%
- NUMBER OF MARBLES COVERED BY SAWDUST mean ± s.e.m. (mouse [5]; [8]): 8.8 ± 2.4
- marble burying behaviour (in words) (mouse [5]; mouse, 30, 100 and 200 mg/kg i.p.): dose-dependently and significantly reduced marble burying behaviour

Compound: COc1ccc(C(CN(C)C)C2(O)CCCCC2)cc1 (stereo not drawn) [VENLAFAXINE, venlafaxine, reference compound]
- NUMBER OF MARBLES COVERED BY SAWDUST % change from control (mouse [5]; Table 6, 16 mg/kg i.p. −30 min): −60%
- NUMBER OF MARBLES COVERED BY SAWDUST mean ± s.e.m. (mouse [5]; Table 6, 16 mg/kg i.p. −30 min): 8.7 ± 2.2

Compound: COC(=O)C1(C)CCCC2(C)c3ccc(O)c(C(C)C)c3CCC12 (stereo not drawn) [Totarol-19-carboxylic acid methyl ester, totarol-19-carboxylic acid methyl ester]
- IC50 [1]: 7.2 µM

Compound: COc1c(C(C)C)cc2c(c1O)C1(C(=O)O)CCCC(C)(C)C1CC2 (stereo not drawn) [Carnosic acid-12-methylether, carnosic acid 12-methyl ether]
- IC50 [3]: 83.1 ± 6.8 µM
- IC50 [1]: 22 ± 4.9 µM
- IC50 [4]: 40.6 ± 0.25 µM

Compound: CC(C)c1ccc2c(c1)C(=O)C[C@H]1[C@](C)(C(=O)O)CCC[C@]21C [7-Oxocallitrisic Acid, 7-oxocallitrisic acid]
- IC50 [1]: 32.9 ± 8.6 µM

Compound: 16-hydroxytotarol
- IC50 [1]: 7.4 µM

Compound: CNCCC(Oc1ccc(C(F)(F)F)cc1)c1ccccc1 (stereo not drawn) [Fluoxetine, fluoxetine, reference compound]
- NUMBER OF MARBLES COVERED BY SAWDUST % change from control (mouse [5]; Table 5, 32 mg/kg i.p. −30 min): −100%
- NUMBER OF MARBLES COVERED BY SAWDUST mean ± s.e.m. (mouse [5]; Table 5, 32 mg/kg i.p. −30 min): 0.0 ± 0.0
- NUMBER OF MARBLES COVERED BY SAWDUST % change from control (mouse [5]; Table 6, 32 mg/kg i.p. −30 min): −100%
- NUMBER OF MARBLES COVERED BY SAWDUST mean ± s.e.m. (mouse [5]; Table 6, 32 mg/kg i.p. −30 min): 0.0***

Compound: CN1C(=O)CC(=O)N(c2ccccc2)c2cc(Cl)ccc21 [Clobazam, clobazam, reference compound]
- NUMBER OF CROSSINGS % change from control (mouse [6]): +56%
- TIME SPENT IN THE LIGHT COMPARTMENT % change from control (mouse [6]): +43%
